This is an account of results in patent US20220241240A1, “AGENTS AND METHODS FOR INCREASING STEM CELL FUNCTION” (priority 2019, published 2022).

Each structure is given as a SMILES string.

Experiment [1] deals with cord blood derived human HSPCs. The experiment is described as follows: Colony Forming Unit (CFU) assay in methylcellulose. It counts as cell-based. The note with it: hHSPCs cultured 7 days with 50 μM UroA; colonies counted 15 days post plating; versus control. As to the method:
Next, we cultured cord blood derived human HSPCs without or with UroA (50 μM) and performed two functional assays: Colony Forming Unit (CFU) assay—7 days post culture and in vivo transplantation assay in new born NSG-SGM3 pups—5 days post culture (FIG. 2B). […] Cryopreserved CD34+ cells isolated from foetal liver/cord blood were thawed and cultured in vitro in StemSpan (Stem cell tech) media supplemented with hSCF (100 ng/ml), hFLT3L (100 ng/ml), hTPO (50 ng/ml), hLDLP (10 μg/ml) and different concentrations of UroA (dissolved in DMSO) were added; an equal amount of DMSO was added to the control well. For longer culture periods half of the media was replenished every 2nd or 3rd day. CFU assays were carried out using H4434 (Stem cell tech) as per the manufacturer's instructions. 1000 cells from each well were plated in duplicate. Colonies were counted 15 days post plating using Stem Vision (Stem cell tech).

The test system of experiment [2] is Human Cord-blood derived HSCPs. Put plainly: Limiting transplantation experiment: survival of irradiated adult NSG mice given UroA-cultured HSPCs. It counts as in vivo. The settings on record: HSPCs cultured three days with 50 μM UroA, 40,000 cells per irradiated adult NSG mouse; followed eight months; especially early post-transplant phases. As to the method: A) Human cord blood derived HSPCs were cultured in basal media with or without 50 μM UroA. Three days post culture cells were counted and limiting dose (40,000 cells) was injected in each irradiated recipient adult NSG mouse and survival was monitored over several months.
In order to check if a short in vitro treatment with UroA could improve the survival of irradiated recipients post transplantation we designed a limiting transplantation experiment. Human Cord-blood derived HSCPs were cultured for three days in the absence or presence of UroA. Post culture cells were counted and 40,000 cells were injected in each recipient mouse (irradiated NSG adult mice). We followed these mice for several months to check for post transplantation survival.

The subject of experiment [3] is mHSCs. The experiment is described as follows: QPCR gene expression analysis on cultured mHSCs. The settings on record: mHSCs cultured with 20 μM UroA versus without. It counts as cell-based, mouse. Here is the method:
To have analyse the molecular mechanisms by which UroA enhances HSC function, we performed gene expression analysis on mHSCs cultured in basal media with or without UroA (20 μM).
RNA was extracted from HSCs post culture using ZR RNA MicroPrep (Zymo Research) and RNA extraction was performed accordingly to the manufacturer's instructions. RNA was retrotranscribed to cDNA with 1st strand cDNA kit (TAKARA) as per the manufacturer's instructions.
For qPCR, 0.5 μl of cDNA, 5 μl of Power Syber Green mastermix (Applied Biosystem) and 500 nM of primers were used to a final volume of 10 μl for each reaction. The reactions were performed on the 7900HT system (Applied Biosystem).

Experiment [4] relates to cord blood derived human HSPCs. Put plainly: In vivo transplantation assay of UroA-cultured hHSPCs in new born NSG-SGM3 pups. The note with it: hHSPCs cultured 5 days with 50 μM UroA. As to the method:
Next, we cultured cord blood derived human HSPCs without or with UroA (50 μM) and performed two functional assays: Colony Forming Unit (CFU) assay—7 days post culture and in vivo transplantation assay in new born NSG-SGM3 pups—5 days post culture (FIG. 2B). […] Cryopreserved CD34+ cells isolated from foetal liver/cord blood were thawed and cultured in vitro in StemSpan (Stem cell tech) media supplemented with hSCF (100 ng/ml), hFLT3L (100 ng/ml), hTPO (50 ng/ml), hLDLP (10 μg/ml) and different concentrations of UroA (dissolved in DMSO) were added; an equal amount of DMSO was added to the control well. For longer culture periods half of the media was replenished every 2nd or 3rd day. NSG mice were purchased from Jackson Laboratory, bred and maintained under pathogen-free conditions in-house. For transplantation, one day old NSG pups were irradiated with 1 Gy (RS-2000, RAD SOURCE) and a few hours later injected intrahepatically with in vitro expanded HSCs. Each pup was injected with a cell mass derived from an initial 50,000 CD34+ cells post in vitro culture. Mice were bled at 12 weeks to estimate human reconstitution levels (% human CD45+ cells) in the peripheral blood. Antibody combinations were used to further estimate human B cells, T cells, monocytes, neutrophils and NK cells.

Experiment [5] has as its system bone marrow derived mouse HSCs (mHSCs). The experiment is described as follows: Mitochondrial membrane potential (TMRM) and mitochondrial mass (Mitotracker) in cultured mHSCs, flow cytometry. It counts as cell-based. As to the method:
We first tested the effect of UroA on bone marrow derived mouse HSCs (mHSCs) (FIG. 1A). Freshly isolated mHSCs (LKS CD150+CD48-) were cultured in basal media (Stemline+SCF+FLT3L+Penicillin/Streptomycin) supplemented with different concentrations of UroA. Cells were harvested at day 3 and stained with tetramethylrhodamine methyl ester (TMRM; to measure mitochondria membrane potential) and Mitotracker (to measure mitochondrial mass), and analysed by flow cytometry.
Flow cytometry analysis was performed on freshly isolated bone marrow (BM) from C571316 mice. BM was extracted from crushed femora and tibia. Cell suspension was filtered through a 70 μm cell strainer and erythroid cells were eliminated by incubation with red blood cell lysis buffer (eBioscences). Isolation and stains were performed in ice-cold PBS 1 mM EDTA. Lineage positive cells were then removed with a magnetic lineage depletion kit (BD biosciences). Cell suspensions were then stained with specific antibodies for the stem cell compartment and sorted by FACS (BD FACS Aria 111) into 1.5 ml Eppendorf tubes.
(§1) Murine HSCs were sorted into 1.5 ml Eppendorf tubes and were cultured in Stemline II (SIGMA) supplemented with 100 ng/ml SCF (R&D) and 2 ng/ml Flt3 (R&D). Different concentrations as indicated of UroA (dissolved in DMSO) were added; an equal amount of DMSO was added to the control well.
Mouse HSCs already in culture were incubated at 37° C. for 1 hour with 200 nM tetramethylrhodamine methyl ester (TMRM; Invitrogen) and 100 nM Mitotracker green. Cells were then washed with FACS buffer and analysed by flow cytometry on a BD LSR II.

Experiment [6] has as its system mHSCs. The experiment is described as follows: In vivo reconstitution by UroA-cultured mHSCs in lethally irradiated recipient mice. Also noted: species or system mouse. The note with it: mHSCs cultured 3 days with 20 μM UroA, injected into lethally irradiated mice. Here is the method: Having previously shown that lowering mitochondrial membrane potential enhances HSC function (Vannini, N. et al. (2016) Nat Commun 7: 13125), we asked if UroA treatment improves in vivo reconstitution potential of HSCs. To that end, we cultured freshly isolated mHSCs in basal media without or with UroA (20 μM). At the end of the culture period (3 days) cells were counted and injected into lethally irradiated recipient mice (FIG. 2A).
as §1
C57131/6 Ly5.2 mice were lethally irradiated with a total 8 Gy dose in a gamma radiator 24 h before transplant. Mice were injected with 200 donor cells post culture derived from C57131/6 Ly5.1 mice and 200,000 competitor cells derived from C57131/6 Ly5.1/5.2 mice, via tail-vein injection. Peripheral blood was collected every few weeks to determine the percentage of chimerism by FACS analysis.

The subject of experiment [7] is human cord blood derived hematopoietic stem and progenitor cells (hHSPCs). The experiment is described as follows: Mitochondrial membrane potential (TMRM) in cultured hHSPCs (CD34+), flow cytometry. The format is cell-based. The note with it: days 3, 5 and 7, increasing doses of UroA. The text has this:
We then looked at the effect of UroA on human cord blood derived hematopoietic stem and progenitor cells (hHSPCs) (FIG. 1B). Cryopreserved hHSPCs (CD34+) were thawed and cultured in basal media (Stemspan+SCF+FLT3L+TPO+LDLP+Penicillin/Streptomycin) supplemented with different concentrations of UroA. Aliquots of cells were harvested at days 3, 5 and 7, followed by staining for CD34 and TMRM, and analysed by flow cytometry.
Cryopreserved CD34+ cells isolated from foetal liver/cord blood were thawed and cultured in vitro in StemSpan (Stem cell tech) media supplemented with hSCF (100 ng/ml), hFLT3L (100 ng/ml), hTPO (50 ng/ml), hLDLP (10 μg/ml) and different concentrations of UroA (dissolved in DMSO) were added; an equal amount of DMSO was added to the control well. For longer culture periods half of the media was replenished every 2nd or 3rd day.
Human HSCs already in culture were incubated at 37° C. for 1 hour with 200 nM TMRM (Invitrogen). Cells were then washed with FACS buffer, followed by staining with CD34 antibody for 1 hour at 4° C. Cells were washed with FACS buffer and analysed by flow cytometry on a BD LSR II.

A further experiment deals with human HSCs. The note with it: culture media supplemented with nicotinamide riboside; cited from earlier work.

Consider `O=c1oc2cc(O)ccc2c2ccc(O)cc12` [UroA, 3,8-dihydroxyurolithin], for which, in experiment [1], the “numbers of colonies (CFU assay)” value is “significantly higher numbers of colonies”. The “post transplantation survival of recipient mice” value in experiment [2] was “significant improvement in survival”. For the same molecule, in the experiment with mHSCs [3], the “expression of ROS protection genes (Foxo1, SOD2), fold change (delta delta CT)” value is “increased expression”; the “expression of autophagy genes (ATGS, PARK2), fold change (delta delta CT)” value is “increased expression”; the “expression of glycolysis genes (HK2, Glut1), fold change (delta delta CT)” value is “increased expression”. Also, the “human cell numbers in blood cell lineages” value in experiment [4] (NSG-SGM3 mice, primarily lymphoid lineage (T and B cells)) was “higher human cell numbers”. Besides, in experiment [4] (transplanted in irradiated NSG-SGM3 pups), the “human engraftment (proportion and absolute numbers) in blood” value was “increased human engraftment”. Besides, in experiment [5] (mHSCs (LKS CD150+CD48-), day 3 of culture, increasing doses of UroA), the “proportion of cells in the TMRM low gate” value was “step-wise increase”. In addition, the “mitochondrial mass (Mitotracker staining)” value in experiment [5] (mHSCs, day 3, 20 μM UroA) is given as “significant reduction”. Also, in experiment [5] (mHSCs, day 3, all concentrations of UroA), the “mitochondrial mass (Mitotracker staining)” value is given as “decrease in the mitochondrial mass”. Besides, the “TMRM fluorescent intensity (Mean Fluorescence Intensity, MFI)” value in experiment [5] (mHSCs, day 3 of culture, increasing doses of UroA) is recorded as “significant lowering”. Besides, the “reconstitution in myeloid and lymphoid lineages of the blood” value with mHSCs [6] is “This trend was reflected in both the myeloid and lymphoid lineages”. For the same molecule, in the experiment on mHSCs [6] (versus cells cultured without UroA), the “blood reconstitution levels of recipients” value is listed as “higher reconstitution levels”. Also, in experiment [7], the “TMRM signal (Median Fluorescence Intensity, MFI)” value was “concomitant decrease of TMRM signal” and the “proportions of cells in the TMRM low gate” value was “increasing proportions of cells in the TMRM^low gate”.

As for `NC(=O)c1ccc[n+]([C@@H]2O[C@H](CO)[C@@H](O)[C@H]2O)c1` [nicotinamide riboside], the “levels of engraftment in primary and secondary recipient humanised mice” value in the experiment on human HSCs is “significantly higher levels of engraftment”.
